Assay [1] has as its target T1, BChE from equine serum (EqBChE) (Equus caballus, UniProt P81908).
T1 construct: butyrylcholinesterase originated from equine serum (EqBChE); purchased Merck (Prague, Czech Republic); host or cells: equine serum
In words: Inhibition of BChE, modified Ellman's spectrophotometric method. Format: biochemical. Conditions: EqBChE, Ellman's method; mean ± SD, n = three independent experiments. From the text: (§1) The heterocycles 3 were screened for their ability to interfere with the function of AChE from electric eel (EeAChE) and BChE from equine serum (EqBChE) using Ellman’s method (Table 1). Their activities are expressed as the concentration producing 50% inhibition of enzymatic activity (IC50). In addition, we calculated selectivity indexes (SI) that quantify the selectivity for AChE as more inhibited cholinesterase. SI is the ratio of IC50 for BChE/IC50 for AChE.
(§2) Enzyme inhibition activity of 3 quantified as IC50 values was determined spectrophotometrically using modified Ellman’s method. […] The enzyme activity is measured indirectly by determination of 5-mercapto-2-nitrobenzoic acid ion formed after reaction of the thiol reagent 5,5′-disulfanediyl-bis(2-nitrobenzoic acid) (DTNB) and thiocholine, a product of acetylthiocholine (ATCh) and butyrylthiocholine (BTCh) as substrates for hydrolysis by AChE and BChE, respectively.
(§3) The enzyme activity in final reaction mixture (2000 µL) was 0.2 U/mL, concentration of ATCh (or BTCh) 40 µM and concentration of DTNB 100 µM for all reactions. The compounds 3 were dissolved in DMSO and then diluted in demineralized water (conductivity 3 μS, equipment supplier BKG Water Treatment, Hradec Králové, Czech Republic) to the concentration of 1000 µM. […] The final concentration of DMSO was 0.2%. All experiments were carried in triplicates. The average values of reaction rate (v0-uninhibited reaction, vi-inhibited reaction) were used for construction of the dependence v0/vi vs. concentration of inhibitor. From obtained equation of regression curve, IC50 values were calculated.
(§4) Acetylcholinesterase was used from electric eel (Electrophorus electricus L.; EeAChE) and butyrylcholinesterase originated from equine serum (EqBChE).

In assay [2] the target is T2, AChE from electric eel (EeAChE) (Electrophorus electricus, UniProt O42275).
T2 construct: purchased Merck (Prague, Czech Republic)
Put plainly: Inhibition of AChE, modified Ellman's spectrophotometric method. The format is biochemical, electric eel (Electrophorus electricus L.). Conditions: for IC50: EeAChE, Ellman's method, mean ± SD, n = three independent experiments.
Description: as §1, §2, §3, §4

Structures are written as SMILES.

T1 sequence (P81908 whole entry): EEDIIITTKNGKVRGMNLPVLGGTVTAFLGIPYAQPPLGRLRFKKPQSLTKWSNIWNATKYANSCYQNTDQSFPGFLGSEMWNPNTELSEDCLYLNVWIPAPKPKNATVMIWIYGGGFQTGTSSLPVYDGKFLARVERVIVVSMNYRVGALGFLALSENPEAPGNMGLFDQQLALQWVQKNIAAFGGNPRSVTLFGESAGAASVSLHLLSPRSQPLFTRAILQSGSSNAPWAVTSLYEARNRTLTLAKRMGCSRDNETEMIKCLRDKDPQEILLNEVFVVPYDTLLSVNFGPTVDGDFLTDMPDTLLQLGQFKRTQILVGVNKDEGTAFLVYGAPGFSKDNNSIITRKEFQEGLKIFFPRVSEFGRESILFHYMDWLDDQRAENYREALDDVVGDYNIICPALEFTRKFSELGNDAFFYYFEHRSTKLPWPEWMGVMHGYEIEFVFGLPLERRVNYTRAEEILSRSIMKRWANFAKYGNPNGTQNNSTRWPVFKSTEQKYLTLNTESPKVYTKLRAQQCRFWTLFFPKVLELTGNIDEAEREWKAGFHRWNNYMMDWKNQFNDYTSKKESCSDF
T2 sequence (O42275 24-633): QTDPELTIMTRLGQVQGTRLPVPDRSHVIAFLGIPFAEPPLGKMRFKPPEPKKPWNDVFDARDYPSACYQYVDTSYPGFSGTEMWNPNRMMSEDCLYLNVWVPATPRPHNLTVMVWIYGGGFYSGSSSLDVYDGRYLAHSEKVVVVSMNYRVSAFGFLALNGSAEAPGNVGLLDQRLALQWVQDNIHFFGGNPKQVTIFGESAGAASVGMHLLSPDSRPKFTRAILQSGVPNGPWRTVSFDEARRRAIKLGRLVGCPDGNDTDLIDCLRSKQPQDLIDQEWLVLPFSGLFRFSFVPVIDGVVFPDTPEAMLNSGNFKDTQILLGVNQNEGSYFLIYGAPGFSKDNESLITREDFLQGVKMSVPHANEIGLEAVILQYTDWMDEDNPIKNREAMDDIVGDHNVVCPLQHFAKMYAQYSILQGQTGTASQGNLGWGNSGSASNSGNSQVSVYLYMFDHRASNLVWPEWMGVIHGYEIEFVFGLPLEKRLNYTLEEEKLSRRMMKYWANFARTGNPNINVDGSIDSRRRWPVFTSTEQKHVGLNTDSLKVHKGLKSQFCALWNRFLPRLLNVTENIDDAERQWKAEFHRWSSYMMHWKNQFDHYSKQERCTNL

As to `CCCCCCCCCCCCNc1nnc(-c2cnccn2)o1` [3p, N-Dodecyl-5-(pyrazin-2-yl)-1,3,4-oxadiazol-2-amine], the IC50 in assay [1] was 452 ± 59.3 µM. Further, in assay [2], the midpoint of inhibition, the IC50, lay at 92.1 ± 6.11 µM and the “BChE/AChE Ratio (selectivity index, IC50 for BChE/IC50 for AChE)” value is reported as 4.9.

The compound `CCCCCCCCCCCCSc1nnc(-c2ccncc2)o1` [3s, 2-(Dodecylthio)-5-(pyridin-4-yl)-1,3,4-oxadiazole] returned a concentration for half-maximal inhibition (IC50) in assay [1] of more than 500 µM. For the same compound, in assay [2], the half-maximal inhibitory concentration (IC50) worked out at 91.6 ± 7.14 µM and the “BChE/AChE Ratio (selectivity index, IC50 for BChE/IC50 for AChE)” value was more than 5.5.

`CCCCCCCCCCCCNc1nnc(-c2ccc(OC)cc2)o1` [3c, N-Dodecyl-5-(4-methoxyphenyl)-1,3,4-oxadiazol-2-amine] yielded an IC50 in assay [1] of 225 ± 11 µM. In assay [2], the midpoint of inhibition, the IC50, lay at 33.86 ± 0.27 µM and the “BChE/AChE Ratio (selectivity index, IC50 for BChE/IC50 for AChE)” value is 6.6.

In assay [1], `CCCCCCCCCCCCNc1nnc(-c2ccccn2)o1` [3n, N-Dodecyl-5-(pyridin-2-yl)-1,3,4-oxadiazol-2-amine] registered a half-inhibitory concentration (IC50) of 315.4 ± 1.96 µM. For the same compound, in assay [2], the IC50 amounted to 60.5 ± 2.42 µM and the “BChE/AChE Ratio (selectivity index, IC50 for BChE/IC50 for AChE)” value came out at 5.2.

`CCCCCCCCCCCCc1nnc(-c2ccncc2)o1` [3u, 2-Dodecyl-5-(pyridin-4-yl)-1,3,4-oxadiazole] had a half-inhibitory concentration (IC50) in assay [1] of 289 ± 1.55 µM. For the same compound, in assay [2], the IC50 came to 99.2 ± 3.26 µM and the “BChE/AChE Ratio (selectivity index, IC50 for BChE/IC50 for AChE)” value was determined as 2.9.

For `CCCCCCCCCCCCNc1nnc(-c2ccnc(Br)c2)o1` [3q, 5-(2-Bromopyridin-4-yl)-N-dodecyl-1,3,4-oxadiazol-2-amine], the half-inhibitory concentration (IC50) turned out to be 224.2 ± 1.29 µM in assay [1] and 73.4 ± 2.06 µM in assay [2]. Also, in assay [2], the “BChE/AChE Ratio (selectivity index, IC50 for BChE/IC50 for AChE)” value amounted to 3.1.

Compound `CCCCCCCCCCCCNc1nnc(-c2ccc(I)cc2)o1` [3j, N-Dodecyl-5-(4-iodophenyl)-1,3,4-oxadiazol-2-amine] showed an IC50 in assay [1] of 482 ± 6.15 µM. Also, in assay [2], 37.8 ± 1.83 µM corresponded to half-maximal inhibition (IC50) and the “BChE/AChE Ratio (selectivity index, IC50 for BChE/IC50 for AChE)” value came to 12.7.

Regarding `CCCCCCCCCCCCNc1nnc(-c2cc([N+](=O)[O-])cc([N+](=O)[O-])c2)o1` [3k, 5-(3,5-Dinitrophenyl)-N-dodecyl-1,3,4-oxadiazol-2-amine], in assay [1], the 50% inhibitory concentration (IC50) came out at 384 ± 5.34 µM. Also, in assay [2], the IC50 was determined as 40.98 ± 0.11 µM and the “BChE/AChE Ratio (selectivity index, IC50 for BChE/IC50 for AChE)” value is given as 9.4.

`CCCCCCCCCCCCNc1nnc(-c2ccc(F)cc2)o1` [3g, N-Dodecyl-5-(4-fluorophenyl)-1,3,4-oxadiazol-2-amine] came in with an IC50 in assay [1] of 266.7 ± 2.59 µM. In assay [2], the concentration for half-maximal inhibition (IC50) was determined as 36.7 ± 1.59 µM and the “BChE/AChE Ratio (selectivity index, IC50 for BChE/IC50 for AChE)” value came to 7.3.

Take `CCCCCCCCCCCCNc1nnc(-c2ccncn2)o1` [3o, N-Dodecyl-5-(pyrimidin-4-yl)-1,3,4-oxadiazol-2-amine]: the values for the IC50 in assay [1] and in assay [2] were 298.3 ± 2.19 µM and 45.5 µM, respectively. The “BChE/AChE Ratio (selectivity index, IC50 for BChE/IC50 for AChE)” value in assay [2] came to 6.6.

Turning to `CCCCCCCCCCCCNc1nnc(-c2ccnnc2)o1` [3r, N-Dodecyl-5-(pyridazin-4-yl)-1,3,4-oxadiazol-2-amine], the IC50 is 238 ± 13.8 µM in assay [1] and 81.5 ± 4.14 µM in assay [2]. Further, the “BChE/AChE Ratio (selectivity index, IC50 for BChE/IC50 for AChE)” value in assay [2] is listed as 2.9.

On to `CCCCCCCCCCCCNc1nnc(-c2ccc(C)cc2)o1` [3b, N-Dodecyl-5-(p-tolyl)-1,3,4-oxadiazol-2-amine], for which the IC50 in assay [1] is 90 ± 2.35 µM. Further, in assay [2], inhibition was half-maximal at 34.6 ± 0.96 µM (IC50) and the “BChE/AChE Ratio (selectivity index, IC50 for BChE/IC50 for AChE)” value amounted to 2.6.

For the compound `CCCCCCCCCCCCNc1nnc(-c2ccccc2)o1` [3a, N-Dodecyl-5-phenyl-1,3,4-oxadiazol-2-amine], the 50% inhibitory concentration (IC50) in assay [1] was found to be 149 ± 1.69 µM; in assay [2] it was 40.1 ± 0.54 µM. Also, the “BChE/AChE Ratio (selectivity index, IC50 for BChE/IC50 for AChE)” value in assay [2] is 3.7.

`CCCCCCCCCCCCNc1nnc(-c2ccc(C(C)(C)C)cc2)o1` [3d, 5-[4-(tert-Butyl)phenyl]-N-dodecyl-1,3,4-oxadiazol-2-amine]: inhibition in assay [1] was half-maximal at 152 ± 6.02 µM (IC50). Further, in assay [2], half-maximal inhibition (IC50) was put at 65.2 ± 0.72 µM and the “BChE/AChE Ratio (selectivity index, IC50 for BChE/IC50 for AChE)” value stood at 2.3.

Take `CCCCCCCCCCCCNc1nnc(-c2ccncc2)o1` [3l, N-Dodecyl-5-(pyridin-4-yl)-1,3,4-oxadiazol-2-amine]: the values for the IC50 in assay [1] and in assay [2] were 223 ± 1.54 µM and 50.2 ± 0.79 µM, respectively. In assay [2] (3t vs. 3l), the “fold lower AChE inhibition, oxadiazole vs. thiadiazole 3t” value amounted to 3.9 ×. Further, the “BChE/AChE Ratio (selectivity index, IC50 for BChE/IC50 for AChE)” value in assay [2] came to 4.4.

As for `CCCCCCCCCCCCNc1nnc(-c2ccc(Cl)cc2)o1` [3h, 5-(4-Chlorophenyl)-N-dodecyl-1,3,4-oxadiazol-2-amine], the half-maximal inhibitory concentration (IC50) was found to be 444 ± 8.5 µM in assay [1] and 50.2 ± 1.88 µM in assay [2]. Further, in assay [2], the “BChE/AChE Ratio (selectivity index, IC50 for BChE/IC50 for AChE)” value was 8.8.

Take `CCCCCCCCCCCCNc1nnc(-c2ccc(Br)cc2)o1` [3i, 5-(4-Bromophenyl)-N-dodecyl-1,3,4-oxadiazol-2-amine]: the results for the IC50 in assay [1] and in assay [2] were 369 ± 5.82 µM and 40 ± 0.98 µM, respectively. In addition, the “BChE/AChE Ratio (selectivity index, IC50 for BChE/IC50 for AChE)” value in assay [2] is 9.2.

Consider `CCCCCCCCCCCCNc1nnc(-c2ccc(N(C)C)cc2)o1` [3f, 5-[4-(Dimethylamino)phenyl]-N-dodecyl-1,3,4-oxadiazol-2-amine], for which the IC50 in assay [1] amounted to 316 ± 6.22 µM; in assay [2] it was 87.99 ± 0.81 µM. Besides, the “BChE/AChE Ratio (selectivity index, IC50 for BChE/IC50 for AChE)” value in assay [2] is 3.6.

Turning to `CCCCCCCCCCCCNc1nnc(-c2cccnc2)o1` [3m, N-Dodecyl-5-(pyridin-3-yl)-1,3,4-oxadiazol-2-amine], in assay [1], half-maximal inhibition (IC50) required 369 ± 3.83 µM. Further, in assay [2], the IC50 is 64.2 ± 0.93 µM and the “BChE/AChE Ratio (selectivity index, IC50 for BChE/IC50 for AChE)” value turned out to be 5.8.

With `CCCCCCCCCCCCNc1nnc(-c2ccc([N+](=O)[O-])cc2)o1` [3e, N-Dodecyl-5-(4-nitrophenyl)-1,3,4-oxadiazol-2-amine], the half-maximal inhibitory concentration (IC50) was 105.2 ± 0.94 µM in assay [1] and 70.46 ± 0.59 µM in assay [2]. Moreover, the “BChE/AChE Ratio (selectivity index, IC50 for BChE/IC50 for AChE)” value in assay [2] was 1.5.
